{"source": "patent US20230398228A1", "about": "“ERIBULIN-BASED ANTIBODY-DRUG CONJUGATES AND METHODS OF USE” (EISAI R&D MANAGEMENT CO., LTD., priority 2016, published 2023)", "key": {"in vivo [1]": {"experiment": "in vivo", "conditions": "female, NMRI nu/nu, mouse, iv", "method": "(§2) Tumor fragments were implanted subcutaneously into the left flank of 40 NMRI nu/nu female mice, and tumor volume was monitored. Mice with a tumor volume of 100-160 mm^3 were randomized into one of four groups (Groups A-D, Table 39). […] Each group consisted of 8 animals. The day of randomization was designated as Day 0 of the experiment.\n(§3) Tumor growth was evaluated by the measurement of two perpendicular diameters twice weekly, and tumor volume (TV), relative tumor volume (RTV) and treated/control (T/C) values were calculated. Body weight was also evaluated twice weekly as a parameter for toxicity, with the calculation of the body weight per group and body weight changes (BWC) relative to the start of treatment. Animals were sacrificed when the individual tumor volume exceeded 1 cm^3, or at the end of the study."}, "in vivo [2]": {"experiment": "in vivo", "conditions": "female, NMRI nu/nu, mouse, iv", "remark": "listed apart in the source", "method": "as §2, §3"}, "[3]": {"test_system": "Endo-10590 endometrial cancer patient-derived xenograft", "experiment": "Endometrial cancer PDx model Endo-10590", "conditions": "for anti-tumor activity, in words: single i.v. dose", "method": "as §2, §3"}, "[4]": {"test_system": "Endo-12961 endometrial cancer patient-derived xenograft", "experiment": "Endometrial cancer PDx model Endo-12961", "conditions": "for anti-tumor activity, in words: single i.v. dose", "method": "as §2, §3"}, "NUGC3 cells": {"test_system": "NUGC3 cells", "experiment": "Crystal Violet cytotoxicity assay (Example 4), NUGC3", "format": "cell-based, human", "conditions": "Homo sapiens, NUGC-3; NUGC3-Luc cells; mean of replicate experiments; read-out: Cytotoxicity IC50 (nM), NUGC3-Luc (FR^neg, MSLN^neg, her2^neg)", "protocol": "(§1) Test reagents were serial diluted 1:3 in 2 mL deep-well dilution plates, starting at 200 nM (10 dilutions total). […] Medium was then discarded. […] Plates were read at 570 nm. Data was analyzed using GraphPad Prism 6."}, "NCI-N87 cells": {"test_system": "NCI-N87 cells", "experiment": "Crystal Violet cytotoxicity assay (Example 4), NCI-N87", "format": "cell-based, human", "conditions": "Homo sapiens; NCI-N87-Luc cells; mean of replicate experiments; read-out: Cytotoxicity IC50 (nM), NCI-N87-Luc (FR^lo, MSLN^med, her2^hi)", "protocol": "as §1"}, "IGROV1 cells": {"test_system": "IGROV1 cells", "experiment": "Crystal Violet cytotoxicity assay (Example 4), IGROV1", "format": "cell-based, human", "conditions": "Homo sapiens, IGROV-1, mean of replicate experiments, read-out: Cytotoxicity IC50 (nM), IGROV1 (FR^hi, MSLN^neg)", "protocol": "as §1"}, "A431 cells": {"test_system": "A431 cells", "experiment": "Crystal Violet cytotoxicity assay (Example 4), A431 (parental)", "format": "cell-based, human", "conditions": "Homo sapiens, A-431, mean of replicate experiments, read-out: Cytotoxicity IC50 (nM), A431 (FR^neg, MSLN^neg)", "protocol": "Test reagents were serial diluted 1:3 in 2 mL deep-well dilution plates, starting at 200 nM (10 dilutions total). […] Medium was then discarded. […] Plates were read at 570 nm. Data was analyzed using GraphPad Prism 6. […]\nMAL-PEG2-Val-Cit-PAB-eribulin (ER-001159569) was conjugated to eight different anti-human mesothelin antibodies (Table 1). Binding affinities of the parental antibodies were determined by BIAcore analysis, as described above in section 1.6.1. Aggregation levels for all anti-human mesothelin ADCs were determined by SEC-HPLC and the DAR was analyzed using HIC-HPLC. In vitro potency was evaluated using a Crystal Violet cell-based cytotoxicity assay in A3 (A431 stabily transfected with human mesothelin (MSLN), MSLN^hi), OVCAR3 (human ovarian, MSLN^hi), HEC-251 (human endometroid, MSLN^med), H226 (human lung squamous cell mesothelioma, MSLN^lo), and A431 parental (MSLN^neg) cells."}, "[5]": {"test_system": "human BM-MSCs co-cultured with MKN-74 cells", "experiment": "3D co-culture system (rStomach, zPredicta), MSC differentiation by flow cytometry", "format": "cell-based", "conditions": "7 days treatment, MORAb-202 10 nM, MORAb-003 10 nM, eribulin […] and 0.2 nM (Table 41)", "protocol": "All mesenchymal stem cell (MSC)-containing 3D co-culture experiments were conducted in zPredicta, using organ-specific 3D extracellular matrix systems such as rStomach™. Bone marrow mesenchymal stem cells (BM-MSCs) in rStomach™ were co-cultured with the Nuc Red Light MKN-74 gastric cancer cell line in quadruplicate in 48-well format for 12 days. […] Prior to culture, BM-MSCs were evaluated for target antigen expression and for markers of MSC differentiation (Table 40) by flow cytometry.\nControls included untreated and vehicle-treated (PBS and DMSO) cultures. MSC differentiation was monitored by light microscopy. Once visible differentiation was observed, samples were harvested for staining and flow cytometry analysis.\nBone marrow mesenchymal stem cells (BM-MSCs) in rStomach™ (zPredicta) were co-cultured with the MKN-74 gastric cancer cell line for 12 days. […] Once visible MSC differentiation was observed by light microscopy, samples were harvested for staining and flow cytometry analysis."}, "NCI-H2110 cells": {"test_system": "NCI-H2110 cells", "experiment": "Crystal Violet cytotoxicity assay (Example 4), NCI-H2110", "format": "cell-based, human", "conditions": "Homo sapiens, mean of replicate experiments, read-out: Cytotoxicity IC50 (nM), NCI-H2110 (FR^med, MSLN^med)", "protocol": "as §1"}, "BT-474 cells": {"test_system": "BT-474 cells", "experiment": "Crystal Violet cytotoxicity assay (Example 4), BT-474", "format": "cell-based, human", "conditions": "Homo sapiens; BT-474 cells; mean of replicate experiments; read-out: Cytotoxicity IC50 (nM), BT-474 (FR^neg, MSLN^neg, her2^hi)", "protocol": "as §1"}, "ZR-75 cells": {"test_system": "ZR-75 cells", "experiment": "Crystal Violet cytotoxicity assay (Example 4), ZR-75", "format": "cell-based, human", "conditions": "Homo sapiens, ZR75; ZR-75-1 cells; mean of replicate experiments; read-out: Cytotoxicity IC50 (nM), ZR-75-1 (FR^neg, MSLN^neg, her2^med)", "protocol": "as §1"}, "[6]": {"experiment": "Maximum tolerated dose of eribulin in CD-1 mice", "format": "in vivo, mouse", "conditions": "for toxicity, in words: q4dx3", "protocol": "Naïve CD-1 mice were injected intravenously with 200 μL of eribulin according to the schedule in Table 22. Body weight was measured three times a week including prior to dose on each dosing day and 24 hours following each dose. […] The terminal body weight was measured and recorded. Euthanized mice at the end of the study (and if any mouse euthanized or found dead during the study) were processed for necropsy. Organs were examined for signs of tissue damage."}, "HL-60 cells": {"test_system": "HL-60 cells", "experiment": "Bystander killing assay, Nuclight Red HL-60", "format": "cell-based, human", "conditions": "Homo sapiens; HL-60 cells treated with free eribulin; read-out: EC50, HL-60 (eribulin)", "method": "The day before study commencement, Nuclight™ Green (NLG) IGROV1 cells were seeded at 5,000 cells/well into 96-well round bottom plates, followed by centrifugation at 1,000 rpm for 3 min at room temperature to ensure formation of a cell pellet. The plate was placed in the vessel of an Incucyte Zoom® (EssenBio science) and incubated at 37° C./5% CO2 overnight. The program was set to collect images of cell growth, and to determine total numbers of nuclear green-stained and nuclear red-stained cells as well as phase-confluency of the cells every two hours. […] 50 μL of cytotoxin solution was added to the NLG-IGROV1 cells and incubated for 30 min. During the incubation period, Nuclight™ Red (NLR) HL-60 (FR^neg) cells were diluted to 2×10^5, 1×10^5 or 5×10^4 cell/mL with fresh media. 50 μL of the NLR-HL60 cell suspension or medium alone was added to the NLG-IGROV1 wells, followed by centrifugation at 1,000 rpm for 3 min at room temperature to ensure re-formation of the cell pellet. The plate was placed back into the vessel of Incucyte Zoom (EssenBio science) and incubated at 37° C./5% CO2 for up to 5 days. Relative cell growth of NLG-IGROV1 was determined by comparison to no ADC or free drug alone added samples using green cell counts. Relative cell growth of HL60 was done similarly, except that red cell count was determined. Determination of IC50 values for both NLG-IGROV1 and NLR-HL-60 was determined using Prism (GraphPad).\nIn order to assess bystander killing activity, an assay was set up using two labeled cell lines. […] Cytotoxicity was monitored by an Incucyte Zoom® cell imager."}, "[7]": {"conditions": "MORAb-202 5 mg/kg or eribulin 3.2 mg/kg"}}, "note": "Several values for one entry are separate records, joined by “and”; a condition that tells them apart may be missing. Identical values can stand only once."}
{"compound": "C=C1C[C@@H]2CC[C@@]34C[C@H]5O[C@H]6[C@@H](O3)[C@H]3O[C@H](CC[C@@H]3O[C@H]6[C@H]5O4)CC(=O)C[C@@H]3[C@@H](OC)[C@@H](C[C@H](O)CN)O[C@H]3C[C@H]3O[C@@H](CC[C@@H]1O2)C[C@@H](C)C3=C", "note": "[eribulin]", "values": [{"measurement": "MTD", "setting": "in vivo [1]", "result": 3.2, "unit": "mg/kg"}, {"measurement": "MTD", "setting": "in vivo [2]", "result": 3.2, "unit": "mg/kg"}, {"measurement": "tumor re-growth during the study, in words", "setting": "[3]; [7]", "result": "began to re-grow"}, {"measurement": "anti-tumor activity, in words", "setting": "[3]; [7]", "result": "significant anti-tumor activity"}, {"measurement": "anti-tumor activity, in words", "setting": "[3]; eribulin 0.1 mg/kg", "result": "no significant anti-tumor activity"}, {"measurement": "effect on body weight, in words", "setting": "[3]; first week post-treatment", "result": "temporarily affected body weight"}, {"measurement": "tumor re-growth during the study, in words", "setting": "[4]; [7]", "result": "began to re-grow"}, {"measurement": "anti-tumor activity, in words", "setting": "[4]; [7]", "result": "significant anti-tumor activity"}, {"measurement": "anti-tumor activity, in words", "setting": "[4]; eribulin 0.1 mg/kg", "result": "no significant anti-tumor activity"}, {"measurement": "effect on body weight, in words", "setting": "[4]; first week post-treatment", "result": "temporarily affected body weight"}, {"measurement": "IC50", "setting": "NUGC3 cells", "result": 0.445, "unit": "nM"}, {"measurement": "IC50", "setting": "NCI-N87 cells", "result": 0.257, "unit": "nM"}, {"measurement": "IC50", "setting": "IGROV1 cells", "result": 0.32, "unit": "nM"}, {"measurement": "IC50", "setting": "A431 cells", "result": 0.653, "unit": "nM"}, {"measurement": "Percentage of live cells, Pericytes", "setting": "[5]; PBS 14.6%", "result": 25.8, "unit": "%"}, {"measurement": "Percentage of live cells, Adipocytes", "setting": "[5]; PBS […]", "result": 2.68, "unit": "%"}, {"measurement": "Percentage of live cells, MSCs", "setting": "[5]; PBS […]", "result": 29.9, "unit": "%"}, {"measurement": "IC50", "setting": "NCI-H2110 cells", "result": 0.199, "unit": "nM"}, {"measurement": "IC50", "setting": "BT-474 cells", "result": 0.151, "unit": "nM"}, {"measurement": "IC50", "setting": "ZR-75 cells", "result": 0.236, "unit": "nM"}, {"measurement": "clinical finding, in words", "setting": "[6]; 3.2 mg/kg q4dx3, after the second dose", "result": "piloerection in all three mice"}, {"measurement": "body weight loss of individual mouse", "setting": "[6]; 3.2 mg/kg q4dx3, after the third dose", "result": "17% and 8%"}, {"measurement": "toxicity, in words", "setting": "[6]; 3.2 mg/kg", "result": "severe weight loss"}, {"measurement": "toxicity, in words", "setting": "[6]; doses up to 1.6 mg/kg", "result": "no toxicity"}, {"measurement": "body weight loss or clinical findings, in words", "setting": "[6]; doses up to 1.6 mg/kg, q4dx3, i.v.", "result": "No significant body weight loss or clinical findings indicating toxicity"}, {"measurement": "gross organ changes at necropsy, in words", "setting": "[6]; mouse, in vivo", "result": "No gross changes"}, {"measurement": "MTD", "setting": "[6]; mouse, in vivo, iv, q4dx3, i.v., CD-1 mice", "result": 1.6, "unit": "mg/kg"}, {"measurement": "EC50", "setting": "HL-60 cells", "result": 0.17, "unit": "nM"}]}
